Consider seven molecules from patent publication US10138292B2, “Cell culture medium” (BIOLAMINA AB, priority 2010, dated 2018).

The subject of experiment [1] is hES cells. The experiment in a line: Cell survival assay, 24 hours (Example 2). In kind it is cell-based, human. The note with it: for survival 24 hours after plating: single cell suspension, O3 medium, absence of ROCK inhibitor; for survival after 24 hours: dissociated hES cells. As for the experimental part: (§1) The survival assay was performed as described for the cell adhesion assay above, except that the cells were left in the cell incubator for 24 hours. For inhibition of survival assay, the cells were kept in a medium with function blocking antibodies at the concentrations recommended by the manufacturer or pathway inhibitors at concentrations indicated in the text for 30 minutes, and then plated on the coated dishes. All the experiments were performed in quadruplicate.
Pluripotent hES cells express α1, α5, β1, β2 and γ1 laminin chains. To compare the adhesion and clonal survival of hES cells plated from single cell suspension to different coating substrata, hES cells growing as monolayers on LN-511 or as clusters on a feeder layer were trypsinized into single cell suspension in O3 medium and plated on cell culture dishes coated with Matrigel, LN-111, LN-511, LN-521 or a mixture of LN-511 and LN-521, in the absence or presence of a ROCK inhibitor (Y-27632) and analyzed after 24 hours.

In experiment [2] the test system is human ES cells. The experiment in a line: Cell adhesion / single cell survival 1 day after plating (Example 1). The experiment is classed as cell-based. Particulars: for cells remaining attached / surviving 24 hours after plating: completely dissociated H5181 cells, O3 medium without any additives, no ROCK inhibitor. Here is the method:
(§2) Ninety-six-well tissue cell culture plates were coated overnight at 4° C. with sterile solutions of the ECM proteins mouse LN-111 (Invitrogen), human recombinant LN-511, and human recombinant LN-521, all at a concentration of 30 μg/ml (5 μg/cm^2). For control cells, BD Matrigel™ hESC qualified (BD Biosciences) was used according to the manufacturer's instructions.
(§3) The assay was performed as described (Extracellular Matrix Protocols, 2000). Briefly, 96-well plates were coated by extracellular matrix proteins as described above and blocked by O3 medium containing bovine serum albumin. The ES cells were plated at a cell density of 600 cell/mm^2 upon extracellular matrix-coated plates and were left to adhere for either 1 hour or 1 day at the cell incubator. Non-adherent cells were washed away, and adherent cells were fixed for 20 min by 5% glutaraldehyde, stained by 0.1% Crystal Violet.

The target in a further experiment is Integrin α6β1 (Homo sapiens, UniProt P05556+P23229). Particulars: cited from earlier work.
In experiment [3] the test system is phosphorylated myosin light chain (P-MLC). The experiment in a line: Western blot of phosphorylated myosin light chain. The experiment is classed as cell-based, human. Particulars: one and six hours after plating. As for the experimental part:
HS 181 cells were trypsinized into single cell suspension as described above. For inhibition experiments, the cells were kept in O3 medium with blocking antibodies or pathway inhibitors for 30 minutes and then 450K cells were plated on 35 mm dishes precoated with the appropriate matrix coating. For other experiments, same number of cells was plated directly after trypsinization. […] After two washings in ice-cold PBS, the plates with cells were snap frozen in liquid nitrogen and stored at −80° C. To prepare samples for western blots and ELISA, the plates were slowly thawed and kept on ice with 100-150 μl of lysis buffer (50 mM Tris-HCl, pH7.5, 150 mM NaCl, 0.5% deoxycholate, 0.5% SDS, 1% Triton X-100, 1% Igepal, Complete™ (Roche) and Phospho-Stop™ (Roche)) on top. Then, the cells were scraped, pipetted and sheared through a 27G ¾″ needle. After that, the cell pellets were clarified by centrifugation at 16,100 rcf for 15 minutes at 4° C. For western blots, 4-12% gradient gels were used for SDS electrophoresis and the proteins were transferred to PVDF membranes. The membrane was hybridized with the antibody of interest according to the manufacturer's instructions. Chemoluminescent HRP-substrate from Amersham Biosciences was used for visualization. For the densitometry analysis the films were scanned at 2,400 dpi and analyzed by the Chemilmager5500 program (1D-Multi Line densitometry mode). […]

Experiment [4] deals with human embryonic stem cells. The experiment in a line: Survival of dissociated human embryonic stem cells one day after plating on precoated dishes. The experiment is classed as cell-based. Particulars: single cell suspension, O3 medium, 30 Kcells/cm^2. The source says: In other aspects, the present disclosure provides a new material, isolated laminin-521, which permits human embryonic stem cell survival after dissociation into single cell suspension. The stem cells were dissociated into single cell suspension by Trypsin-EDTA treatment, pelleted by centrifugation, resuspended into O3 medium, filtered through a 40 μm sieve, and plated at a density of 30 Kcells/cm^2 on cell culture dishes precoated by either isolated laminin-521, laminin-511, or Matrigel. After one day in culture, the cells plated on Matrigel died, as is known in the art.

The subject of experiment [5] is human ES cells. The note with it: teratomas after engraftment into SCID mice; cited from earlier work.
Experiment [6] relates to hES cells. The experiment in a line: Cell adhesion assay, 1 hour (Example 2). The experiment is classed as cell-based, human. The note with it: not shown. As for the experimental part: Tissue cell culture plates were coated overnight at 4° C. with sterile solutions of the ECM proteins, such as human recombinant LN-521, all at a concentration of 30 μg/ml (5 μg/cm^2). Control plates were coated with Matrigel according to the STEMCELL Technologies' instructions. Prior to use, dishes were pre-warmed in an incubator for one hour after which prewarmed O3 medium was added without additional washing of the dish. After applying a fresh LN-521 solution to a new dish, the remaining LN-521 solution could be used at least once more. All the adhesion, survival, and inhibition of survival experiments were carried out using fresh coating materials.
Briefly, 96-well plates were coated by extracellular matrix proteins as described above and blocked by O3 medium containing bovine serum albumin. The ES cells were plated at cell density of 50,000 cells/cm^2 onto extracellular matrix-coated plates and left to adhere for 1 hour in a cell incubator. After that the plates were washed 3 times with the medium to remove the non-adherent cells, and then the adherent cells were fixed for 20 minutes by 5% glutaraldehyde, stained by 0.1% Crystal Violet. (Kebo Lab, Spanga, Sweden, http://www.kebolab.se). After one hour and 3 washes with water, Crystal Violet was extracted with 10% acetic acid and quantified by measuring optical density at 570 nm. All the experiments were performed in quadruplicate.

The test system of a further experiment is mouse ES cells. The note with it: without LIF or feeder cells; cited from earlier work.
In experiment [7] the test system is human ES cells. The experiment in a line: Cell adhesion assay, 1 hour (Example 1). Particulars: O3 medium without any additives, without Y-27632. In kind it is cell-based. As for the experimental part:
as §2, §3

The subject of experiment [8] is PI3K/Akt and MEK1/Erk pathways. The experiment is described as follows: Western blot with antibodies to phospho-Akt / phospho-Erk. In kind it is cell-based, human. Particulars: cells collected one hour after plating on LN-521. Here is the method:
HS 181 cells were trypsinized into single cell suspension as described above. For inhibition experiments, the cells were kept in O3 medium with blocking antibodies or pathway inhibitors for 30 minutes and then 450K cells were plated on 35 mm dishes precoated with the appropriate matrix coating. For other experiments, same number of cells was plated directly after trypsinization. In all cases the cells were allowed to spread for 1 hour at 37° C., 5% CO2. After two washings in ice-cold PBS, the plates with cells were snap frozen in liquid nitrogen and stored at −80° C. To prepare samples for western blots and ELISA, the plates were slowly thawed and kept on ice with 100-150 μl of lysis buffer (50 mM Tris-HCl, pH7.5, 150 mM NaCl, 0.5% deoxycholate, 0.5% SDS, 1% Triton X-100, 1% Igepal, Complete™ (Roche) and Phospho-Stop™ (Roche)) on top. Then, the cells were scraped, pipetted and sheared through a 27G ¾″ needle. After that, the cell pellets were clarified by centrifugation at 16,100 rcf for 15 minutes at 4° C. For western blots, 4-12% gradient gels were used for SDS electrophoresis and the proteins were transferred to PVDF membranes. The membrane was hybridized with the antibody of interest according to the manufacturer's instructions. […] For the densitometry analysis the films were scanned at 2,400 dpi and analyzed by the Chemilmager5500 program (1D-Multi Line densitometry mode). […]

The test system of experiment [9] is hES cells. The experiment in a line: Inhibition of survival assay on LN-521. In kind it is cell-based, human. The note with it: medium contained bFGF. As for the experimental part:
as §1

Experiment [10] concerns hES cells. The experiment is described as follows: Clonal survival of individualized hES cells (Example 4). In kind it is cell-based, human. The note with it: mTeSR1 medium, 250 cells per cm^2, 5 days, alkaline phosphatase staining. Here is the method: hES cells were plated in mTeSR1 medium on different coatings at a density of 250 cells per cm^2 and monitored after 5 days in culture using an alkaline phosphatase staining kit.
Next, combinations of laminin-521 and E-Cadherin were tested to determine whether the combinations could sustain clonal survival of the cells. Fixed amounts of laminin-521 were used for the cell culture dish coating in combination with titrated E-Cadherin.
Additional tests were performed to test the effects of various modifications to the mTeSR1 medium. A mixture of E-Cadherin to laminin-521 in a ratio of about 1:10 w/w was used to coat the plates. […] Time-lapse photography of the cells confirmed that laminin-521/E-Cadherin coatings facilitated cell survival through proliferation of the single cells, not through the aggregation of different cells.

Integrin α6β1, sequence (P23229 24-1130): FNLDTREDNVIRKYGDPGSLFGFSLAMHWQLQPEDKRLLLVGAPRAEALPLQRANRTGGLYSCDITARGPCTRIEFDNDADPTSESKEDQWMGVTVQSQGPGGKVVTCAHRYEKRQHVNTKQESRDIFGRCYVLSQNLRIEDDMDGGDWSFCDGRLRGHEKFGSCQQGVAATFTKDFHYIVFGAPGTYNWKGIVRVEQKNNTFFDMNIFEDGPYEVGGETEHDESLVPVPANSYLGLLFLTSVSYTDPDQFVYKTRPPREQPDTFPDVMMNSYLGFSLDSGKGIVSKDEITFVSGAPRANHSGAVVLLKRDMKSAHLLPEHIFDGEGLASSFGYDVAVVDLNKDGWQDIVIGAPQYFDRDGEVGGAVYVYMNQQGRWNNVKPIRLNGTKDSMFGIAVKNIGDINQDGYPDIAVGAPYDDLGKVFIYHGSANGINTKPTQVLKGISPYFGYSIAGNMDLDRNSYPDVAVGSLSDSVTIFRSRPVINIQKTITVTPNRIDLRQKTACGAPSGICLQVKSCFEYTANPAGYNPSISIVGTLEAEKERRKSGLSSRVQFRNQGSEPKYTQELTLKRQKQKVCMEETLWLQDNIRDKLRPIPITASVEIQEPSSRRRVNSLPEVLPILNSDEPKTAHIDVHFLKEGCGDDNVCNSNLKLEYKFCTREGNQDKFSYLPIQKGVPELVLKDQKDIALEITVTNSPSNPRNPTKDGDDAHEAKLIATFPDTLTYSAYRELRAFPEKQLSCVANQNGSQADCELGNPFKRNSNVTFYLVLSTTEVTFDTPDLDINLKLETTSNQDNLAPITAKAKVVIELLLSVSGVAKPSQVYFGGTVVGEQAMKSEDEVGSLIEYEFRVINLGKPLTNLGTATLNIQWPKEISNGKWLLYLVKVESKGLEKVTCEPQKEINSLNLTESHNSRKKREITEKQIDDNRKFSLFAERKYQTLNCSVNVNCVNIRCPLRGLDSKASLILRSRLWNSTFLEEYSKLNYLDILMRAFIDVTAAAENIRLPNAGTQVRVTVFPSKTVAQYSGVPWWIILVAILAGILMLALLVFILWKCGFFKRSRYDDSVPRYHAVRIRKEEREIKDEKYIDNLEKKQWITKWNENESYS
Integrin α6β1, sequence (P05556 21-798): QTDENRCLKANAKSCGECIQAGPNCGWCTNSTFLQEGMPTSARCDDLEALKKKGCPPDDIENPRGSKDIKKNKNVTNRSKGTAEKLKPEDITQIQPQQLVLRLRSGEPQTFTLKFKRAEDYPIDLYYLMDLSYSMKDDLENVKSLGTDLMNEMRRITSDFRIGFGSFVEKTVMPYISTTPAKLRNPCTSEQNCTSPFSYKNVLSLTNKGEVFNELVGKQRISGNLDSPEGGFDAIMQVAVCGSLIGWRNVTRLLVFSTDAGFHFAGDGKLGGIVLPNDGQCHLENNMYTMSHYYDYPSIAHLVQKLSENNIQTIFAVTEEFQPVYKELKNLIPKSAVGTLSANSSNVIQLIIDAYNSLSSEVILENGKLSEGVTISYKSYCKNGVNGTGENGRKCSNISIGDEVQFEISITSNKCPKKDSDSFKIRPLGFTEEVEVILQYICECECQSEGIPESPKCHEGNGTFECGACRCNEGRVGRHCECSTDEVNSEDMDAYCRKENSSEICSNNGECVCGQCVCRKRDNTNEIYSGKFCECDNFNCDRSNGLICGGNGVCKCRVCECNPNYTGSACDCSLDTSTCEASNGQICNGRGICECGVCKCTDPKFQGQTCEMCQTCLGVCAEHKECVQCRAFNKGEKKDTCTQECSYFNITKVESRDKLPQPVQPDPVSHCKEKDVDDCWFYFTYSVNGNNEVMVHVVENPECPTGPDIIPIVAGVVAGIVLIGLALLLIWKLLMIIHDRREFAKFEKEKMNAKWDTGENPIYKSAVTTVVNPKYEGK

In the case of “LN-121: human recombinant laminin with α1, β2 and γ1 chains from triple-transfected HEK293 cells”, the “survival 24 hours after plating” value in the experiment on hES cells [1] is listed as “failed to survive”.
For “LN-111: mouse laminin-111 (Invitrogen), indicated as LN-111 if not otherwise stated”, in the experiment on hES cells [1], the “survival after 24 hours” value is “almost no cells had survived” and the “survival 24 hours after plating” value is recorded as “did not survive”. Also, in the experiment on human ES cells [2], the “cells remaining attached / surviving 24 hours after plating” value is “almost no cells remained attached”.
As to “LN-511: human recombinant laminin-511 coating protein”, in the experiment with Integrin α6β1, the “binding affinity of integrin α6β1 compared with LN-111” value was “higher”. In experiment [3], the “phosphorylation of MLC compared with cells on Matrigel and LN-111” value is reported as “even higher”. For the same molecule, the “survival after one day in culture” value in experiment [4] was “in most cases”. Besides, the “pluripotency of human ES cells grown over 3 months” value in the experiment with human ES cells [5] was “maintain pluripotency”. In addition, in the experiment with hES cells [1], the “survival after 24 hours” value was “very few” and the “survival 24 hours after plating” value is reported as “did so as single cells”. Moreover, the “spreading of the cells after one hour compared with Matrigel or LN-111” value in the experiment with hES cells [6] is on record as “clearly better”. In addition, in the experiment with mouse ES cells, the “duration of self-renewal of mouse ES cells” value is given as “over 5 months”. Also, the “adhesion of human ES cells at 1 hour” value with human ES cells [7] is recorded as “roughly the same”. In the experiment with human ES cells [2], the “cells remaining attached / surviving 24 hours after plating” value is “at a less extent”.
Regarding `COc1cccc(-c2cc(=O)c3ccccc3o2)c1N` [PD 98059], the “efficacy of inhibitor treatment by western blot” value in experiment [8] was “confirmed”. Further, in the experiment with hES cells [9], the “hES cell survival 24 hours after plating on LN-521 with pathway inhibitor” value is reported as “did not affect the survival that severely”.
For `C[C@@H](N)[C@H]1CC[C@H](C(=O)Nc2ccncc2)CC1` [Y-27632, reference compound], the “survival 24 hours after plating in the presence of ROCK inhibitor” value with hES cells [1] (Matrigel, LN-111, LN-511, LN-521 or mixture coatings) was “survived on all surfaces”. In the experiment on human ES cells [2] (O3 medium treated with ROCK inhibitor Y-27632, 5 coatings), the “cells remaining attached after one day” value is reported as “remained attached on all 5 coatings”.
With “human recombinant LN-111: human recombinant laminin with α1, β1 and γ1 chains from triple-transfected HEK293 cells”, the “survival 24 hours after plating” value in the experiment on hES cells [1] is given as “failed to survive”.

B1: E-Cadherin: epithelial-cadherin used as cell culture dish coating (protein, UniProt P12830 155-882, looked up)
Cadherin-1: DWVIPPISCPENEKGPFPKNLVQIKSNKDKEGKVFYSITGQGADTPPVGVFIIERETGWLKVTEPLDRERIATYTLFSHAVSSNGNAVEDPMEILITVTDQNDNKPEFTQEVFKGSVMEGALPGTSVMEVTATDADDDVNTYNAAIAYTILSQDPELPDKNMFTINRNTGVISVVTTGLDRESFPTYTLVVQAADLQGEGLSTTATAVITVTDTNDNPPIFNPTTYKGQVPENEANVVITTLKVTDADAPNTPAWEAVYTILNDDGGQFVVTTNPVNNDGILKTAKGLDFEAKQQYILHVAVTNVVPFEVSLTTSTATVTVDVLDVNEAPIFVPPEKRVEVSEDFGVGQEITSYTAQEPDTFMEQKITYRIWRDTANWLEINPDTGAISTRAELDREDFEHVKNSTYTALIIATDNGSPVATGTGTLLLILSDVNDNAPIPEPRTIFFCERNPKPQVINIIDADLPPNTSPFTAELTHGASANWTIQYNDPTQESIILKPKMALEVGDYKINLKLMDNQNKDQVTTLEVSVCDCEGAAGVCRKAQPVEAGLQIPAILGILGGILALLILILLLLLFLRRRAVVKEPLLPPEDDTRDNVYYYDEEGGGEEDQDFDLSQLHRGLDARPEVTRNDVAPTLMSVPRYLPRPANPDEIGNFIDENLKAADTDPTAPPYDSLLVFDYEGSGSEAASLSSLNSSESDKDQDYDYLNEWGNRFKKLADMYGGGEDD
Consider B1, for which the “clonal survival of individualized hES cells” value with hES cells [10] is given as “Neither laminin-521 nor E-Cadherin alone permitted efficient clonal survival”.
